The results in this text go back to article PMC12073177 (Molecules, 2025).

Structures are written as SMILES.

The test system of data set [1] is NLRP3. The data set can be described thus: NLRP3 ELISA in LPS-stimulated RAW 264.7 cells. The class given is cell-based, murine. As to conditions: for inhibition at 40 µM: Mus musculus, RAW264.7, read-out: NLRP3 inhibition rate; for NLRP3 inhibition (result in words): 40 µM. Background: ELISA stands for enzyme-linked immunosorbent assay.
Method: For evaluating the NLRP3 inhibitory activity, the highest concentration of 40 µM was selected, as this concentration had previously been confirmed to maintain cell viability (Section 2.4.1).
To assess NLRP3 inflammasome activation, RAW 264.7 macrophages were seeded at a density of 5 × 10^5 cells/well in 96-well plates. […] The levels of NLRP3 in the culture supernatant were quantified using a commercially available ELISA kit (Lsbio, WA, USA) according to the manufacturer’s protocol. Absorbance was measured at 450 nm, and NLRP3 concentrations were determined using a standard curve, expressed in ng/mL. To ensure statistical accuracy, all experiments were performed in duplicate.
In data set [2] the test system is nitric oxide (NO) production in LPS-stimulated RAW 264.7 cells. The data set can be described thus: Nitric oxide production in LPS-stimulated RAW 264.7 cells (Griess reagent). Format: cell-based, murine. The following applies: for reduction of NO production: 40 µM, relative to the LPS-treated group, LPS 24 h; for effect on NO production (result in words): 5, 10, 20 and 40 µM, LPS-stimulated RAW 264.7. (Nitrite, measured by Griess reagent, commonly stands in for NO production.)
Method: NO levels in the culture supernatants were quantified using the Griess reagent assay, and absorbance was measured at 540 nm.
RAW 264.7 cells were maintained in Dulbecco’s Modified Eagle Medium (DMEM, Sigma-Aldrich, St. Louis, MO, USA) supplemented with 10% heat-inactivated fetal bovine serum (FBS, Invitrogen, Burlington, ON, Canada) and 1% (w/v) antibiotic-antimycotic solution (Invitrogen, Grand Island, NY, USA). The cells were cultured in a humidified incubator at 37 °C under 95% air and 5% CO2 conditions.
The production of NO was quantified by measuring nitrite levels in the culture supernatants using the Griess reagent (1% sulfanilamide, 0.1% N-(1-naphthyl)-ethylenediamine dihydrochloride, and 5% phosphoric acid). […] The cells were then stimulated with 0.5 μg/mL lipopolysaccharide (LPS, Sigma-Aldrich, CA, USA) for 24 h in a total volume of 200 μL. After incubation, 100 μL of culture supernatant was mixed with an equal volume of Griess reagent and incubated at room temperature for 5 min. Sodium nitrite was used as a standard for calibration, and nitrite concentration was determined by measuring absorbance at 540 nm. All experiments were conducted in triplicate.

For data set [3], the target named is T1, β-secretase (BACE-1) (Homo sapiens, UniProt P56817).
T1 construct: purchased Thermo Fisher Scientific, San Diego, CA, USA
T1 sequence (P56817 46-501): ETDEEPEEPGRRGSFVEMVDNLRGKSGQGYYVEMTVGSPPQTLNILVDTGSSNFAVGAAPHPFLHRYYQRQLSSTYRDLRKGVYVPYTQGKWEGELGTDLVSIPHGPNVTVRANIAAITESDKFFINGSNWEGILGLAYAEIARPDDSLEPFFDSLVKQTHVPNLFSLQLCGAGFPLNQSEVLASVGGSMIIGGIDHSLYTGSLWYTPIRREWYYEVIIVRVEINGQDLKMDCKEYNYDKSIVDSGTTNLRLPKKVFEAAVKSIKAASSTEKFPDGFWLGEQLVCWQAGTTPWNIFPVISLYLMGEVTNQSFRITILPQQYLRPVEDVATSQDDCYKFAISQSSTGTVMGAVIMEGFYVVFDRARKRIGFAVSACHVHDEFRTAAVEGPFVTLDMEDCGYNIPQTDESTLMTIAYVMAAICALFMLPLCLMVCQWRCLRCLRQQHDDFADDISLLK
Briefly: BACE-1 FRET-based inhibition assay. The class given is biochemical. The following applies: 60 min at room temperature, mean ± SD, ND = no detectable inhibitory activity.
Method: The reaction was initiated by adding 10 µL of a 3× BACE-1 enzyme solution. Plates were incubated at room temperature for 60 min in the dark. After incubation, 10 µL of 2.5 mM sodium acetate was added to terminate the reaction. Fluorescence was measured using a multimode plate reader (Multiskan™ GO, Thermo Scientific, Waltham, MA, USA) with an excitation wavelength of 545 nm and an emission wavelength of 585 nm. The IC50 values were determined by plotting relative fluorescence units per hour (RFU/h) against the logarithmic inhibitor concentrations. All experiments were performed in triplicate.

Data set [4] is described as follows: DPPH radical scavenging assay (antioxidant activity). The following applies: in methanol, 30 min, absorbance at 540 nm. The class given is biochemical. How it is done:
Absorbance was measured at 540 nm. All experiments were conducted in triplicate.
For orientation: DPPH is a stable violet radical that fades when it is reduced.

The target of data set [5] is T2, tau protein (tau-BiFC SH-SY5Y cell line) (Homo sapiens, UniProt P10636).
T2 construct: split fluorescent protein fragments for BiFC (complementing N- and C-terminal halves); expressed in transfected cells; host or cells: SH-SY5Y
T2 sequence (P10636 1-441 isoform P10636-8): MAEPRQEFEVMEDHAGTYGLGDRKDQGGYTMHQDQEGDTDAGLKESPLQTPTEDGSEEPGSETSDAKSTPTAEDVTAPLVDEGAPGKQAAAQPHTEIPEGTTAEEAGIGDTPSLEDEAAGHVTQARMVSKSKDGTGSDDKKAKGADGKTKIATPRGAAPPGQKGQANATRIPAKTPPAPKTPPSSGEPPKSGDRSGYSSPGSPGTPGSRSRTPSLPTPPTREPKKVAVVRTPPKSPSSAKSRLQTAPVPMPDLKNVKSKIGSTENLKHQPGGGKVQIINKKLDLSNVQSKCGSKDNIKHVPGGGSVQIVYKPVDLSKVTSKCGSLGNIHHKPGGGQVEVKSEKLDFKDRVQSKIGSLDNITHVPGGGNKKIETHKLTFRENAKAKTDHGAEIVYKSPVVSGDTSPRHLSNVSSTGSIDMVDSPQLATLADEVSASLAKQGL
Briefly: Tau-BiFC SH-SY5Y anti-tau aggregation assay. Format: cell-based. As to conditions: 10 μM, 24 h, compared to the control group. How it is done:
Cells were maintained at 37 °C in a humidified incubator with 5% CO2.

A short description of data set [6]: MTT cell viability assay in RAW 264.7 cells. The class given is cell-based, murine. The following applies: mouse, RAW 264.7 macrophage cells, RAW 264.7, MTT; for viability at 24 h: tested concentrations up to 40 μM. How it is done:
(§1) Absorbance was measured at 570 nm using a microplate reader.
(§2) All experiments were performed in triplicate.

Data set [7] deals with RAW 264.7 cells. Briefly: MTT cell viability assay in RAW 264.7 cells. Format: cell-based, murine. As to conditions: RAW 264.7, MTT, 24 h, 5-40 μM. How it is done:
as §1, §2

As a reminder, the inhibition is the relative decrease from the control value, in per cent. In general, IC50 refers to the concentration needed to halve the response being measured. In general, viability refers to the share of living cells, or the viability signal relative to a control. `COc1ccc(NNC(=O)CC[C@H](N)C(=O)O)cc1` [RA-4OMe, N^5-((4-methoxyphenyl)amino)glutamine]: the inhibition at 40 µM in data set [1] was at least 20%. In data set [2], the “reduction of NO production” value is reported as 25~35%. Further, the “effect on NO production (result in words)” value (shortened to “effect on NO production”) in data set [2] was “concentration-dependent reduction in NO levels”. Besides, the IC50 turned out to be 25 ± 5.72 µM in data set [3] and 5.49 ± 0.63 µM in data set [4]. The “anti-tau aggregation effect (BiFC fluorescence, result in words)” value (“anti-tau aggregation effect” below) in data set [5] is recorded as “moderate inhibitory effects”. The viability at 24 h in data set [6] was above 100%.
As for `NC(CCC(=O)NNc1cccc2ccccc12)C(=O)O` (stereo not drawn) [RA-NAP], in data set [1], the inhibition at 40 µM lay within 10 to 15%. Besides, the “effect on NO production” value in data set [2] was “moderate NO-reducing effect”. The IC50 in data set [3] is 0.66 ± 1.05 µM; in data set [4], 1.77 ± 0.12 µM. Moreover, the “anti-tau aggregation effect” value in data set [5] is given as “significant reductions in tau aggregation”. The viability at 24 h, 40 µM in data set [6] is above 80%.
Consider `N[C@@H](CCC(=O)NNc1ccccn1)C(=O)O` [RA-PYD, N^5-(pyridin-2-ylamino)glutamine], for which the inhibition at 40 µM in data set [1] is at least 20%. For the same compound, the “effect on NO production” value in data set [2] is on record as “did not significantly suppress NO production”. Also, the IC50 in data set [3] was found to be 0.32 ± 0.08 µM; in data set [4], 7.4 ± 3.54 µM. The “anti-tau aggregation effect” value in data set [5] is listed as “significant reductions in tau aggregation”. Also, the “cytotoxicity (result in words)” value in data set [7] is “no significant reduction in cell survival”.
On to `N[C@@H](CCC(=O)NNc1ccc2ccccc2n1)C(=O)O` [RA-2Q, N^5-(quinolin-2-ylamino)glutamine], for which the inhibition at 40 µM in data set [1] was at least 20%. Besides, the “effect on NO production” value in data set [2] is “did not significantly suppress NO production”. Further, the “BACE-1 IC50” value in data set [3] is listed as “no detectable BACE-1 inhibitory activity (ND)”. Moreover, the IC50 in data set [4] came out at 9.7 ± 0.32 µM. Moreover, the “anti-tau aggregation effect” value in data set [5] is “significant reductions in tau aggregation”. Besides, the “cytotoxicity (result in words)” value in data set [7] is listed as “no significant reduction in cell survival”.
Take `NC(CCC(=O)NNc1cccc(C(F)(F)F)c1)C(=O)O` (stereo not drawn) [RA-3CF3, N^5-((3-(triflouromethyl)phenyl)amino)glutamine]: the inhibition at 40 µM in data set [1] is 10 to 15%. Moreover, in data set [2], the “effect on NO production” value was “concentration-dependent reduction in NO levels”. In addition, the IC50 was 0.33 ± 0.79 µM in data set [3] and 31.7 ± 14.6 µM in data set [4]. Besides, in data set [5], the “anti-tau aggregation effect” value is given as “did not show significant anti-tau effects”. The viability at 24 h in data set [6] is above 100%.
Regarding `COc1ccccc1NNC(=O)CC[C@H](N)C(=O)O` [RA-2OMe, N^5-((2-methoxyphenyl)amino)glutamine], the inhibition at 40 µM in data set [1] was at least 20%. Moreover, in data set [2], the “reduction of NO production” value was 25~35% and the “effect on NO production” value was “concentration-dependent reduction in NO levels”. In data set [3], this compound yielded an IC50 of 7.97 ± 2.46 µM. The IC50 in data set [4] worked out at 2.81 ± 0.03 µM. The “anti-tau aggregation effect” value in data set [5] is listed as “moderate inhibitory effects”. The viability at 24 h in data set [6] was above 100%.
With `CN(C)NC(=O)CC[C@H](N)C(=O)O` [RA-DMe, N^5-(dimethylamino)glutamine], in data set [1], the “NLRP3 inhibition (result in words)” value was “no significant NLRP3-inhibitory effects”. The “effect on NO production” value in data set [2] is on record as “moderate NO-reducing effect”. Moreover, in data set [3], the “BACE-1 IC50” value is “no detectable BACE-1 inhibitory activity (ND)”. Further, in data set [4], 598 µM corresponded to half-maximal inhibition (IC50). Also, in data set [5], the “anti-tau aggregation effect” value was “did not exhibit significant anti-tau aggregation activity”. Further, the viability at 24 h, 40 µM in data set [6] is above 80%.
In the case of `NC(CCC(=O)NNc1ccccc1C(F)(F)F)C(=O)O` (stereo not drawn) [RA-2CF3, N^5-((2-(triflouromethyl)phenyl)amino)glutamine], the inhibition at 40 µM in data set [1] is at least 20%. In addition, the “effect on NO production” value in data set [2] is listed as “moderate NO-reducing effect”. The IC50 in data set [3] is 11.6 ± 14 µM; in data set [4] it was 3 ± 0.03 µM. The compound also yielded a viability at 24 h in data set [6] above 100%.
Turning to `CC(C)NNC(=O)CC[C@H](N)C(=O)O` [RA-IPr, N^5-(Isopropylamino)glutamine], the “NLRP3 inhibition (result in words)” value in data set [1] is listed as “no significant NLRP3-inhibitory effects”. In data set [2], the “effect on NO production” value was “did not significantly suppress NO production”. Besides, the “BACE-1 IC50” value in data set [3] is “no detectable BACE-1 inhibitory activity (ND)”. In addition, inhibition in data set [4] was half-maximal at 2580 ± 359 µM (IC50). The “anti-tau aggregation effect” value in data set [5] is “did not exhibit significant anti-tau aggregation activity”. Further, the “cytotoxicity (result in words)” value in data set [7] is given as “no significant reduction in cell survival”.
`NC(CCC(=O)NNc1ccc(OC(F)(F)F)cc1)C(=O)O` (stereo not drawn) [RA-4OCF3, N^5-((4-(triflouromethoxy)phenyl)amino)glutamine]: the inhibition at 40 µM in data set [1] was at least 20%. In data set [2], the “effect on NO production” value is “concentration-dependent reduction in NO levels”. The figures for the concentration for half-maximal inhibition (IC50) in data set [3] and in data set [4] were 9.89 ± 13.6 µM and 3.77 ± 0.09 µM, respectively. Also, the viability at 24 h in data set [6] was above 100%.
